From patent US4511559A, “Biologically active polysaccharide concentrates and process for production of preparates containing such substances” (Kozponti Valto-es Hitelbank Rt. InnovacioAlap, priority 1982, dated 1985)
Where two headings read alike, the source gives them in different places.

Assays:
[1] = in vivo; settings: rat, in vivo, po, LD50, p.o.
Description: (§1) The anti-inflammatory activity of the polysaccharide concentrate according to the invention was investigated intraperitoneally on rat according to the paw carrageenan oedema test. Simultaneously the LD50 values of the polysaccharide concentrates (i.p.) were determined.
(§2) The anti-inflammatory activity of the prepared polysaccharide concentrates was determined in comparison to the indomethancin as well using the rat paw carrageenan oedema test. The polysaccharide sample was intraperitoneally injected one hour before the inflammation inducing carrageenan. As reference standard per os applied indomethacin was used, which was suspended in 1% methylcellulose solution, and given through a gastric tube into the stomach one hour prior to the administration of Carrageenan to CFY rats and CFLP mice. The dosage was the same during the toxicity studies as well.
(§3) To develop the PG phase 5 hours are required from the injection of the inflammation inducing carrageenan.

[2] = system: rat; experiment: in vivo; settings: table 4
Description: as §1, §2, §3

[3] = system: rat paw carrageenan oedema; experiment: rat paw carrageenan oedema test (anti-inflammatory activity); assay type: in vivo; settings: for Anti-inflammatory activity %: table 4; for ED50: Rattus norvegicus, po, reference standard
Excerpt: (§4) The anti-inflammatory activity of the polysaccharide concentrates produced according to the invention was investigated on the rat paw carrageenan oedema test according to Winter et al. [Proc. Soc. Exp. Biol. Med. 111. 544. (1962)]. The concentrate has a significant specific activity and in connection with its advantageous anti-inflammatory activity it posseses a remarkably low toxicity.

[4] = as above; assay type: in vivo; settings: rat, in vivo, po, read-out: Therapeutic index LD50/ED50
Excerpt: as §4

[5] = system: adjuvans arthritis in rat; experiment: adjuvans arthritis in rat (chronic inflammation model); assay type: in vivo; settings: 50 mg/kg, intraperitoneal, 3 weeks
Excerpt: The polysaccharides produced according to the invention show significant effectivity on chronic inflammation models too, for example on adjuvans arthritis in rat, at intraperitoneal treatment for 3 weeks: […]

SMILES | LD50 ([1]; table 4) | Dose/LD50 ratio ([2]; dose 400 mg/kg p.o.) | Anti-inflammatory activity % ([3]; 400 mg/kg p.o.) | LD50 ([1]; table 2) | Dose/LD50 ratio ([2]; dose 10 mg/kg p.o.) | Anti-inflammatory activity % ([3]; 10 mg/kg p.o.) | ED50 ([3]; 2 hours) | ED50 ([3]; 5 hours) | selectivity ratio ([4]; 2 hours) | selectivity ratio ([4]; 5 hours) | Anti-inflammatory activity % [5] | Anti-inflammatory activity % ([3]; 90 mg/kg p.o.) | inhibition ([3]; 100 mg/kg, standard) | Inhibiton ([3]; intraperitoneally, rat, 100 mg/kg)
CC(=O)Oc1ccccc1C(=O)O [Aspyrine] | 1200 mg/kg | 0.330 | 36% |  |  |  |  |  |  |  |  |  |  | 
COc1ccc2c(c1)c(CC(=O)O)c(C)n2C(=O)c1ccc(Cl)cc1 [Indomethacin, indomethacin] | 17 mg/kg |  |  | 32 mg/kg | 0.580 | 51% | 3.14 mg/kg | 2.2 mg/kg | 10.2 | 14.5 |  |  |  | 
CCCCC1C(=O)N(c2ccccc2)N(c2ccccc2)C1=O [Phenylbutazone, phenylbutazone] |  |  |  |  |  |  |  |  |  |  | 64% | 40% | 45% | 45.0%
